Values after ≈ are worked out from the molar mass of the structure shown. Like-named read-outs stand apart in the source and are kept apart here.
How the values were obtained:
[1] = biological target: T1, full-length beta-Catenin (Uniprot ID P35222) (Homo sapiens, UniProt P35222); test: Fluorescence polarization IC50 (beta-catenin / 5FAM-TCF4 10-53 competition); type: binding
T1 construct: 10 nM full-length beta-Catenin (Uniprot ID P35222)
T1 sequence (P35222 1-781): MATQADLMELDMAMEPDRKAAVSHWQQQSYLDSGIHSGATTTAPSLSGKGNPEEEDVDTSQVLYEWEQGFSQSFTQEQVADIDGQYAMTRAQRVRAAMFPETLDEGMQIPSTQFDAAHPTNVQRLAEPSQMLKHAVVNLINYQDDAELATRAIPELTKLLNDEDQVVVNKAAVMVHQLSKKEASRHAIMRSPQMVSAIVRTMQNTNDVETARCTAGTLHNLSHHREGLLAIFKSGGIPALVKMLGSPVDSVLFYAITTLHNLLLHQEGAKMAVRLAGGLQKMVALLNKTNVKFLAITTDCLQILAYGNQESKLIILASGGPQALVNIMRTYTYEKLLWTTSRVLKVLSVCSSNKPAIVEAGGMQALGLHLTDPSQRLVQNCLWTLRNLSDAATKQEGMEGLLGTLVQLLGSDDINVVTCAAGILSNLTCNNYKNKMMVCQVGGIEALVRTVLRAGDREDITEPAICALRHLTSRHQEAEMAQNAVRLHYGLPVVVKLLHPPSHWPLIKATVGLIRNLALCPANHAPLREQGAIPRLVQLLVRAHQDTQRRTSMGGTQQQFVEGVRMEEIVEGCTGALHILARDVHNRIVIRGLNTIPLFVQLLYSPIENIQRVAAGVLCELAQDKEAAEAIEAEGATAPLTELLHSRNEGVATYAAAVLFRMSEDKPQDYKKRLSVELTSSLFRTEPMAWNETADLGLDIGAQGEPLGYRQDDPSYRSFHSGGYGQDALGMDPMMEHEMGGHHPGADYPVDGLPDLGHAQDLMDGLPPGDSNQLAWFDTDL

[2] = Solubility in PBS; type: physicochemical
In short: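 PBS sample ultracentrifuged; supernatant run on HPLC vs. 50 μM peptide in DMSO standard. Solubility = (PBS peak area / DMSO peak area) × 50 uM.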

[3] = CHI Log D procedure; type: physicochemical
[4] = fluorescence polarization, read-out: beta-Catenin FP IC50
[5] = fluorescence polarization, beta-catenin, read-out: FP EC50

IC50 [1, 4] [nM]	Solubility ([2]; Solubility (uM)) [µM]	chromatographic logD ([3]; pH 7.4, CHI Log D)	IC50 ([1]; read-out: FP EC50) [nM]	Solubility [2] [µM]	CHI Log D ([3]; pH 7.4)	IC50 [1, 5] [nM]	IC50 ([1]; read-out: beta-Catenin FP IC50) [nM]	Structure (SMILES)	IC50 ([1]; FP EC50 (nM), fluorescence polarization, beta-catenin) [nM]	chromatographic logD ([3]; pH 7.4)
114			114	24 (≈ 45.1 µg/mL)	2.436			CC[C@H](C)[C@@H]1NC(=O)[C@H](CC(=O)O)NC(=O)[C@]2(CC=CCCCC3(CCCC=CCCCCCC[C@@](C)(C(=O)N[C@@H](Cc4ccccc4)C(=O)N[C@@H](Cc4csc5ccccc45)C(=O)N[C@@H](Cc4c[nH]cn4)C(N)=O)NC(=O)[C@H](CCC(N)=O)NC(=O)[C@H](Cc4ccccc4)NC(=O)[C@H](C)NC(=O)[C@H](C)NC(=O)[C@H](CC(=O)O)NC(=O)[C@H](CC(=O)O)NC3=O)NC1=O)CCCN2C(C)=O (stereo partly drawn) [I-580, Ac-PL3-Asp-Ile-B5-Asp-Asp-Ala-Ala-Phe-Gln-S8-Phe-BztA-His-NH2]		
				43 (≈ 84.3 µg/mL)	2.87	127	127	CC(=O)N1CCC[C@]12CC=CCCCC1(CCCC=CCCCCCC[C@@](C)(C(=O)N[C@@H](Cc3ccccc3Cl)C(=O)N[C@@H](Cc3csc4ccccc34)C(=O)N[C@@H](CCO)C(N)=O)NC(=O)[C@H](CO)NC(=O)[C@H](Cc3ccccc3)NC(=O)[C@H](C)NC(=O)[C@H](C)NC(=O)[C@H](CN(CC(=O)O)CC(F)(F)F)NC(=O)[C@H](CC(=O)O)NC1=O)NC(=O)[C@H](CC(C)(C)C)NC(=O)[C@H](CC(=O)O)NC2=O (stereo partly drawn) [I-998, Ac-PL3-Asp-Npg-B5-Asp-TfeGA-Ala-Ala-Phe-Ser-S8-2C1F-BztA-Hse-NH2]		
		2.39		10 (≈ 18.9 µg/mL)			16	CC(=O)N1CCC[C@]12CC=CCCCC1(CCCC=CCCCOC(=O)N3CC[C@@](C(=O)N[C@@H](Cc4ccccc4F)C(=O)N[C@@H](Cc4csc5ccccc45)C(=O)N[C@@H](CO)C(N)=O)(C3)NC(=O)[C@H](CO)NC(=O)[C@H](Cc3ccccc3)NC(=O)[C@H](C)NC(=O)[C@H](C)NC(=O)[C@H](CC(=O)O)NC(=O)[C@H](CC(=O)O)NC1=O)NC(=O)[C@H](CC1CCCCC1)NC(=O)[C@H](CC(=O)O)NC2=O (stereo partly drawn) [I-1102, Ac-PL3-Asp-Cha-B5-Asp-Asp-Ala-Ala-Phe-Ser-PyrS2-2FF-BztA-Ser-NH2]		
				45 (≈ 88.9 µg/mL)	1.903	1780	1780	CCN(CC(=O)O)C[C@@H]1NC(=O)[C@H](CC(=O)O)NC(=O)C2(CCCC=CCCCOC(=O)N3CC[C@@](C(=O)N[C@@H](Cc4ccsc4)C(=O)N[C@@H](Cc4csc5ccccc45)C(=O)N[C@@H](CCC(N)=O)C(N)=O)(C3)NC(=O)[C@H](CC(N)=O)NC(=O)[C@H](Cc3ccccc3)NC(=O)[C@H](C)NC(=O)[C@H](C)NC1=O)CCCC=CC[C@]1(CCCN1C(C)=O)C(=O)N[C@@H](CC(=O)O)C(=O)N[C@@H](CC(C)(C)C)C(=O)N2 (stereo partly drawn) [I-965, Ac-PL3-Asp-Npg-B5-Asp-EtGA-Ala-Ala-Phe-Asn-PyrS2-3Thi-BztA-Gln-NH2]		

The remaining lines, values behind:

Structure (SMILES)	IC50 [1, 4] [nM]	Solubility ([2]; Solubility (uM)) [µM]	chromatographic logD ([3]; pH 7.4, CHI Log D)	IC50 ([1]; read-out: FP EC50) [nM]	Solubility [2] [µM]	CHI Log D ([3]; pH 7.4)	IC50 [1, 5] [nM]	IC50 ([1]; read-out: beta-Catenin FP IC50) [nM]	IC50 ([1]; FP EC50 (nM), fluorescence polarization, beta-catenin) [nM]	chromatographic logD ([3]; pH 7.4)
CC(=O)N1CCC[C@]12CC=CCCCC1(CCCC=CCCCCCC[C@@](C)(C(=O)N[C@@H](Cc3ccsc3)C(=O)N[C@@H](Cc3csc4ccccc34)C(=O)N[C@@H](Cc3c[nH]cn3)C(N)=O)NC(=O)[C@H](CC(N)=O)NC(=O)[C@H](Cc3ccccc3)NC(=O)[C@H](C)NC(=O)[C@H](C)NC(=O)[C@H](CN(CC(=O)O)CC(F)(F)F)NC(=O)[C@H](CC(=O)O)NC1=O)NC(=O)[C@H](CC(C)(C)C)NC(=O)[C@H](CC(=O)O)NC2=O (stereo partly drawn) [I-705, Ac-PL3-Asp-Npg-B5-Asp-TfeGA-Ala-Ala-Phe-Asn-S8-3Thi-BztA-His-NH2]	58	25 (≈ 49.9 µg/mL)	2.89							
CC(=O)N1CCC[C@]12CC=CCCCC1(CCCC=CCCCCCC[C@@](C)(C(=O)N[C@@H](Cc3ccsc3)C(=O)N[C@@H](Cc3csc4ccccc34)C(=O)N[C@@H](CCC(N)=O)C(N)=O)NC(=O)[C@H](CC(N)=O)NC(=O)[C@H](Cc3ccccc3)NC(=O)[C@H](C)NC(=O)[C@H](C)NC(=O)[C@H](CCC(=O)O)NC(=O)[C@H](CC(=O)O)NC1=O)NC(=O)[C@H](CC(C)(C)C)NC(=O)[C@H](CC(=O)O)NC2=O (stereo partly drawn) [I-682, Ac-PL3-Asp-Npg-B5-Asp-Glu-Ala-Ala-Phe-Asn-S8-3Thi-BztA-Gln-NH2]	41			41	47 (≈ 88.8 µg/mL)	2.409				
CC[C@H](C)[C@@H]1NC(=O)[C@H](CC(=O)O)NC(=O)[C@]2(CC=CCCCC3(CCCC=CCCCCCC[C@@](C)(C(=O)N[C@@H](Cc4ccccc4)C(=O)N[C@@H](Cc4csc5ccccc45)C(=O)N[C@@H](Cc4ccccc4)C(N)=O)NC(=O)[C@H](CCC(N)=O)NC(=O)[C@H](Cc4ccccc4)NC(=O)[C@H](C)NC(=O)[C@H](C)NC(=O)[C@H](CCC(=O)O)NC(=O)[C@H](CC(=O)O)NC3=O)NC1=O)CCCN2C(C)=O (stereo partly drawn) [I-635, Ac-PL3-Asp-Ile-B5-Asp-Glu-Ala-Ala-Phe-Gln-S8-Phe-BztA-Phe-NH2]	171	43 (≈ 81.8 µg/mL)	2.73							
C[C@@H]1NC(=O)[C@H](C)NC(=O)[C@H](CC(=O)O)NC(=O)[C@H](CC(=O)O)NC(=O)C2(CCCC=CCCCOC(=O)N3CC[C@@](C(=O)N[C@@H](Cc4ccccc4)C(=O)N[C@@H](Cc4csc5ccccc45)C(=O)N[C@@H](Cc4c[nH]cn4)C(N)=O)(C3)NC(=O)[C@H](CC(N)=O)NC(=O)[C@H](Cc3ccccc3)NC1=O)CCCC=CC[C@]1(CCCN1C(=O)CN=[N+]=[N-])C(=O)N[C@@H](CC(=O)O)C(=O)N[C@@H](CC(C)(C)C)C(=O)N2 (stereo partly drawn) [I-1055, AzAc-PL3-Asp-Npg-B5-Asp-Asp-Ala-Ala-Phe-Asn-PyrS2-Phe-BztA-His-NH2]					10 (≈ 19.6 µg/mL)				7	2.11
CC(=O)N1CCC[C@]12CC=CCCCC1(CCCC=CCCCCCC[C@@](C)(C(=O)N[C@@H](Cc3ccsc3)C(=O)N[C@@H](Cc3csc4ccccc34)C(=O)N[C@@H](CCC(N)=O)C(N)=O)NC(=O)[C@H](CC(N)=O)NC(=O)[C@H](Cc3ccccc3)NC(=O)[C@H](C)NC(=O)[C@H](C)NC(=O)[C@H](CCC(=O)O)NC(=O)[C@H](CC(=O)O)NC1=O)NC(=O)[C@H](C)NC(=O)[C@H](CC(=O)O)NC2=O (stereo partly drawn) [I-518, Ac-PL3-Asp-Ala-B5-Asp-Glu-Ala-Ala-Phe-Asn-S8-3Thi-BztA-Gln-NH2]	143			143	39 (≈ 71.5 µg/mL)	1.966				
CC[C@H](C)[C@@H]1NC(=O)[C@H](CC(=O)O)NC(=O)[C@]2(CC=CCCCC3(CCCC=CCCCCCC[C@@](C)(C(=O)N[C@@H](Cc4ccccc4)C(=O)N[C@@H](Cc4csc5ccccc45)C(=O)N[C@@H](CCC(N)=O)C(N)=O)NC(=O)[C@H](CCC(N)=O)NC(=O)[C@H](Cc4ccccc4)NC(=O)[C@H](C)NC(=O)[C@H](C)NC(=O)[C@H](Cc4ccc(C(=O)O)cc4)NC(=O)[C@H](CC(=O)O)NC3=O)NC1=O)CCCN2C(C)=O (stereo partly drawn) [I-606, Ac-PL3-Asp-Ile-B5-Asp-4COOHF-Ala-Ala-Phe-Gln-S8-Phe-BztA-Gln-NH2]	289			289	49 (≈ 95.3 µg/mL)	2.412				
CC[C@H](C)[C@@H]1NC(=O)[C@H](CC(=O)O)NC(=O)[C@]2(CC=CCCCC3(CCCC=CCCCCCC[C@@](C)(C(=O)N[C@@H](Cc4ccccc4)C(=O)N[C@@H](Cc4csc5ccccc45)C(=O)N[C@@H](CCC(N)=O)C(N)=O)NC(=O)[C@H](CCC(N)=O)NC(=O)[C@H](c4ccccc4)NC(=O)[C@H](C)NC(=O)[C@H](C)NC(=O)[C@H](CCC(=O)O)NC(=O)[C@H](CC(=O)O)NC3=O)NC1=O)CCCN2C(C)=O (stereo partly drawn) [I-726, Ac-PL3-Asp-Ile-B5-Asp-Glu-Ala-Ala-Phg-Gln-S8-Phe-BztA-Gln-NH2]	5000	43 (≈ 80.4 µg/mL)	2.34							
CC(=O)N1CCC[C@]12CC=CCCCC1(CCCC=CCCCCCC[C@@](C)(C(=O)N[C@@H](Cc3ccccc3)C(=O)N[C@@H](Cc3csc4ccccc34)C(=O)N[C@@H](CCC(N)=O)C(N)=O)NC(=O)[C@H](CC(N)=O)NC(=O)[C@H](Cc3ccsc3)NC(=O)[C@H](C)NC(=O)[C@H](C)NC(=O)[C@H](CCC(=O)O)NC(=O)[C@H](CC(=O)O)NC1=O)NC(=O)[C@H](C)NC(=O)[C@H](CC(=O)O)NC2=O (stereo partly drawn) [I-449, Ac-PL3-Asp-Ala-B5-Asp-Glu-Ala-Ala-3Thi-Asn-S8-Phe-BztA-Gln-NH2]	53			53	30 (≈ 55 µg/mL)	1.998				
CC[C@H](C)[C@@H]1NC(=O)[C@H](CC(=O)O)NC(=O)[C@]2(CC=CCCCC3(CCCC=CCCCCCC[C@@](C)(C(=O)N[C@@H](Cc4ccccc4)C(=O)N[C@@H](Cc4csc5ccccc45)C(=O)N[C@@H](CCC(N)=O)C(N)=O)NC(=O)[C@H](CCC(N)=O)NC(=O)[C@H](Cc4ccccc4)NC(=O)[C@H](C)NC(=O)[C@H](C)NC(=O)[C@H](CCC(=O)O)NC(=O)[C@H](CC(=O)O)NC3=O)NC1=O)CCCN2C(=O)c1ccccn1 (stereo partly drawn) [I-599, Pic-PL3-Asp-Ile-B5-Asp-Glu-Ala-Ala-Phe-Gln-S8-Phe-BztA-Gln-NH2]	138	45 (≈ 87.6 µg/mL)	2.42							
